Several values for one entry are separate records, joined by “and”; a condition that tells them apart may be missing. Equal values may be shown once.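 Assay format: 96-well plates, 48-hour exposure. GI50 marks 50% less growth. At the TGI there is no net growth.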
Columns and labels:
Assay in all cases: DTP human tumour cell line panel, 48 h
U251 CNS = test system: U251 CNS
HL-60(TB) leukemia = test system: HL-60(TB) leukemia
SK-MEL-5 melanoma = test system: SK-MEL-5 melanoma
MALME-3M melanoma = test system: MALME-3M melanoma
NCI-H23 lung = test system: NCI-H23 lung
NCI-H460 lung = test system: NCI-H460 lung
UACC-257 melanoma = test system: UACC-257 melanoma
HCT-116 colon = test system: HCT-116 colon
RPMI-8226 leukemia = test system: RPMI-8226 leukemia
NCI-H226 lung = test system: NCI-H226 lung

Structure (SMILES)	TGI (U251 CNS)	TGI (HL-60(TB) leukemia)	TGI (SK-MEL-5 melanoma)	TGI (MALME-3M melanoma)	TGI (NCI-H23 lung)	TGI (NCI-H460 lung)	TGI (UACC-257 melanoma)	TGI (HCT-116 colon)	TGI (RPMI-8226 leukemia)	TGI (NCI-H226 lung)	GI50 (U251 CNS)	GI50 (HL-60(TB) leukemia)	GI50 (SK-MEL-5 melanoma)	GI50 (MALME-3M melanoma) [µM]	GI50 (NCI-H23 lung)	GI50 (NCI-H460 lung) [µM]	GI50 (HCT-116 colon)	GI50 (RPMI-8226 leukemia)	GI50 (NCI-H226 lung)	GI50 (UACC-257 melanoma) [µM]
c1ccc2cc(-c3cc4ccccc4s3)ccc2c1	> 100 µM	> 100 µM	> 100 µM	> 100 µM	> 100 µM	> 100 µM	> 100 µM	> 100 µM	> 100 µM	> 100 µM	–	–	–	–	–	–	–	–	–	–
OC(CC1SCCCS1)c1ccccc1 (stereo unspecified)	> 100 µM	> 100 µM	> 100 µM	> 100 µM	> 100 µM	> 100 µM	> 100 µM	> 100 µM	> 100 µM	> 100 µM	–	–	–	–	–	–	–	–	–	–
CC/C=C\C[C@H](O)C/C=C1/C(=O)C(Cl)=C[C@@H]1C/C=C\CCCC(=O)OC	1.39 µM	1.91 µM	1.77 µM	1.23 µM	1.97 µM	2.22 µM	–	0.576 µM	0.88 µM	2.26 µM	0.339 µM	0.453 µM	0.489 µM	0.451	0.523 µM	0.558	0.275 µM	0.21 µM	0.537 µM	–
Nc1ccc([N+](=O)[O-])cc1N=C/C=C/c1ccccc1	77.5 µM	> 100 µM	48.8 µM	> 100 µM	> 100 µM	41.9 µM	> 100 µM	25 µM	> 100 µM	> 100 µM	6.16 µM	2.64 µM	10.7 µM	25.1	18.4 µM	11.3	7.86 µM	5.05 µM	27.8 µM	47.7
CCCCC#CC1=C(Br)C(=O)OC1	> 20.1 µM	> 100 µM	0.366 µM	4.13 µM	9.23 µM	38.8 µM	5.67 µM	0.327 µM	2.72 µM	26.6 µM	1.59 µM	0.249 µM	0.118 µM	1.73	1.5 µM	14	0.139 µM	0.32 µM	3.76 µM	2.2
N=C(N)C1CN(CCc2c[nH]c3ccccc23)C(=O)NC1=O (stereo unspecified)	> 100 µM	> 100 µM	> 100 µM	> 100 µM	> 100 µM	> 100 µM	> 100 µM	> 100 µM	> 100 µM	> 100 µM	–	–	–	–	–	–	–	–	–	–
CCN(CC)CCC(CNc1ccnc2cc(Cl)ccc12)c1ccc(Cl)cc1 (stereo unspecified)	2.85 µM	3.94 µM	2.34 µM	3.16 µM	7.1 µM	11.1 µM	2.37 µM	2.32 µM	3.67 µM	8.19 µM	1.37 µM	1.34 µM	1.11 µM	1.4	1.87 µM	2.03	1.01 µM	1.02 µM	2.46 µM	1.02
CN1CCN(C2CCN(C(=O)Nc3cc(Oc4ccc(NC(=O)C5(C(=O)Nc6ccc(F)cc6)CC5)c(F)c4)ccn3)CC2)CC1	> 10 µM	> 3.33 µM	6.36 µM	2.25 µM	> 3.42 µM	> 10 µM	2.27 µM	> 10 µM	> 2.63 µM	> 3.12 µM	–	1.39 µM	2.43 µM	0.703	1.23 µM	1.44	1.05 µM	1.62 µM	–	0.73
COc1cc(C(=O)N2CCN(C=O)C2=S)cc(OC)c1OC	37.8 µM	44.3 µM	–	43.3 µM	62 µM	> 100 µM	45.4 µM	> 100 µM	42.3 µM	84.6 µM	16.4 µM	23.4 µM	–	24.3	25.9 µM	34	35.6 µM	–	35.9 µM	19.9
O=C(CCN(C(=O)O)S(=O)(=O)c1ccc(NC(=O)c2ccccc2)cc1)Nc1ccccc1	> 100 µM	> 75.2 µM	> 100 µM	> 100 µM	> 100 µM	> 83.6 µM	> 86.3 µM	> 69.5 µM	> 82.4 µM	> 100 µM	–	–	–	–	–	–	–	–	–	–
N#Cc1c(NC(=O)NCc2ccccc2)sc2c1CCCCC2	> 71.2 µM	0.843 µM	3.6 µM	> 100 µM	> 59.8 µM	> 31.7 µM	> 100 µM	> 100 µM	–	> 28.8 µM	0.535 µM	0.286 µM	0.478 µM	0.524	0.695 µM	0.352	0.528 µM	0.397 µM	1.05 µM	1.5
COc1cccc2c1C(=O)c1c(O)c3c(c(O)c1C2=O)C[C@@](O)(C(=O)CO)C[C@@H]3OC1CC(N)CC(C)O1 (stereo partly specified)	2.2 µM and 0.873 µM	0.122 µM and 0.939 µM	0.145 µM and 0.203 µM	0.256 µM and 0.11 µM	0.325 µM and 0.259 µM	0.421 µM and 0.192 µM	0.33 µM and 0.195 µM	0.79 µM and 0.33 µM	0.547 µM and 1.72 µM	0.282 µM and 0.132 µM	0.0224 µM and 0.0311 µM	0.0091 µM and 0.00929 µM and 0.0412 µM	0.00743 µM and 0.025 µM	0.0491	0.0405 µM and 0.0387 µM	–	0.0155 µM and 0.0431 µM	0.0178 µM and 0.0704 µM	0.00987 µM and 0.0723 µM and 0.0435 µM	0.103
CSc1nc(=O)n(CCC#N)nc1SC	> 100 µM	30.7 µM	43 µM	48.6 µM	> 100 µM	> 100 µM	–	30.1 µM	98.4 µM	84.2 µM	–	–	–	–	–	–	–	–	–	–
NC(=O)/C=C/C(=O)c1c(Cl)cccc1Cl	2.67 µM	4.05 µM	2.7 µM	1.71 µM	3.01 µM	3.49 µM	2.68 µM	–	1.14 µM	8.25 µM	1.36 µM	0.679 µM	1.4 µM	0.358	1.53 µM	1.82	0.476 µM	0.264 µM	2.52 µM	1.38
CCCCOC(=O)CNC(=O)OC/C=C/C#CC#C/C=C/COC(=O)NCC(=O)OCCCC	> 100 µM	> 100 µM	> 100 µM	> 100 µM	> 100 µM	> 100 µM	> 10 µM	> 100 µM	> 100 µM	> 10 µM	> 100 µM	> 100 µM	> 100 µM	> 100	> 100 µM	> 100	> 100 µM	> 100 µM	–	–
COc1ccc(OC)c2c1[nH]c(=O)c1c3ccccc3cn21	2.76 µM	4.24 µM	2.93 µM	3.32 µM	3.04 µM	2.73 µM	3.73 µM	2.01 µM	3.21 µM	3.29 µM	1.37 µM	1.7 µM	1.53 µM	1.78	1.49 µM	1.1	0.673 µM	1.07 µM	1.61 µM	2
CCN1CCN(C(=O)[C@@]2(C)CC[C@]3(C)CC[C@]4(C)C(=CC(=O)[C@@H]5[C@@]6(C)CC[C@H](OC7C[C@@H](O)[C@@H](O)C(C)O7)C(C)(C)[C@@H]6CC[C@]54C)[C@@H]3C2)CC1 (stereo partly specified)	5.68 µM	1.91 µM	4.6 µM	2.05 µM	9.57 µM	1.86 µM	6.52 µM	5.74 µM	2.52 µM	21.3 µM	1.52 µM	0.939 µM	1.56 µM	0.917	2.36 µM	0.948	1.65 µM	1.09 µM	10.3 µM	1.65
c1ccc(-c2nnc(-c3ccccn3)s2)nc1	> 100 µM	> 100 µM	> 100 µM	> 100 µM	> 100 µM	> 100 µM	> 100 µM	> 100 µM	> 100 µM	> 100 µM	> 100 µM	> 100 µM	> 100 µM	> 100	> 100 µM	> 100	> 100 µM	> 100 µM	> 100 µM	> 100
Cc1cc(C)c2c(n1)sc1c(Nc3ccc(Cl)cc3)ncnc12	> 100 µM	–	> 100 µM	> 100 µM	> 100 µM	> 100 µM	> 100 µM	> 100 µM	> 100 µM	5.67 µM	< 0.01 µM	< 0.01 µM	< 0.0141 µM	19.3	< 0.01 µM	< 0.01	< 0.01 µM	0.0197 µM	0.0333 µM	0.107
C=C1C(=O)OC2CC(C)C(C(CC(C)=O)OC(C)=O)=CCC12 (stereo unspecified)	29.6 µM	> 29.3 µM	32 µM	3.97 µM	34.3 µM	41.9 µM	37.4 µM	4.21 µM	21.6 µM	> 66.4 µM	–	–	–	–	–	–	–	–	–	–
CCC12CCCN(Cc3ccccc3)C1c1c(n(C)c3ccccc13)CC2 (stereo unspecified)	> 253 µM	> 253 µM	184 µM	> 253 µM	> 253 µM	> 253 µM	> 253 µM	> 253 µM	> 253 µM	> 253 µM	–	–	–	–	–	–	–	–	–	–
O=C1CCC2(c3ccc(Cl)cc3)Nc3ncccc3N12 (stereo unspecified)	> 100 µM	> 100 µM	> 100 µM	> 100 µM	> 100 µM	> 100 µM	> 100 µM	–	> 100 µM	> 100 µM	–	–	–	–	–	–	–	–	–	–
COc1ccc(Sc2[nH]c(C(C)=O)c3ccccc23)cc1	25.1 µM	33.4 µM	24.9 µM	51.3 µM	41.5 µM	20.6 µM	33.3 µM	24.3 µM	33.4 µM	27.6 µM	11.9 µM	15 µM	12.5 µM	17.8	14.6 µM	7.41	12 µM	10.9 µM	5.66 µM	15.3
Nc1nn2cc(F)cnc2c1C(=O)Nc1cncc(F)c1N1CCC(C(=O)N2CCN(C3COC3)CC2)CC1	> 100 µM	0.465 µM	1.77 µM	12 µM	0.498 µM	7.2 µM	> 76.4 µM	> 29.6 µM	–	4.45 µM	0.656 µM	0.129 µM	0.428 µM	0.608	0.0606 µM	0.254	0.942 µM	1.2 µM	1.17 µM	1.32
CCOC(=O)C(C#N)C1=CC(=O)C(=O)c2ccc(OC)cc21 (stereo unspecified)	72.5 µM	> 100 µM	28.8 µM	31 µM	30.6 µM	58.6 µM	31.1 µM	44.8 µM	> 100 µM	49.7 µM	–	–	–	–	–	–	–	–	–	–
O=C(Nc1ccc(Br)cc1F)c1cc(F)ccc1O	> 100 µM	2.89 µM	0.541 µM	1.53 µM	3.15 µM	9.75 µM	4 µM	1.96 µM	1.36 µM	3.46 µM	0.609 µM	0.485 µM	0.227 µM	0.335	0.386 µM	0.491	0.44 µM	0.296 µM	0.67 µM	0.466
O=C(Nc1ccc(Nc2ccncc2)cc1)c1ccc([N+](=O)[O-])cc1	7.12 µM	> 24.6 µM	21.4 µM	17.3 µM	> 62.6 µM	16.5 µM	26.2 µM	17 µM	17 µM	29.7 µM	2.49 µM	4.43 µM	4.89 µM	4.89	10.8 µM	4.24	2.93 µM	2.5 µM	12.1 µM	10.5
COC(=O)c1ccc2c(c1)nc(NC(=O)c1ccccc1)n2CCCc1ccccc1	> 100 µM	> 100 µM	5.87 µM	> 100 µM	> 100 µM	> 100 µM	> 100 µM	> 100 µM	> 100 µM	> 100 µM	2.73 µM	4.5 µM	2.13 µM	5.73	5.26 µM	1.22	3.06 µM	5.31 µM	11.2 µM	6.85
CC(C)(C)NNC(=O)CCn1[nH]c(=O)c(Cl)c(Cl)c1=O	> 100 µM	> 100 µM	–	> 100 µM	> 100 µM	> 100 µM	> 100 µM	–	> 100 µM	> 100 µM	–	–	–	–	–	–	–	–	–	–
CC(C)C(CCl)NC(=O)c1cccc(C(=O)N[C@H](CCl)C(C)C)n1 (stereo in doubt)	> 100 µM	> 100 µM	> 100 µM	> 100 µM	> 100 µM	> 100 µM	–	> 100 µM	> 100 µM	> 100 µM	–	–	–	–	–	–	–	–	–	–

From PubChem BioAssay (NCI)
